In patent publication US11524960B2, “Heterobicyclic inhibitors of MAT2A and methods of use for treating cancer” (AGIOS PHARMACEUTICALS, INC., priority 2018, dated 2022):

How the values were obtained:
HCT116 MTAP+/+ = assay: Inhibition of cellular proliferation (Cell Titer Glo), HCT116 MTAP+/+; type: cell-based, human; settings: Homo sapiens, HCT-116, 96 h, 4 days, IC50 score, read-out: 4 Day Relative Growth Inhibition (MTAP +/+; Example 277)
In short: (§1)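 Proliferation was read as ATP luminescence (Cell Titer Glo) after a 4-day, 37 °C exposure of HCT116 cells differing only in MTAP deletion status. Dosing was 10 points, 3-fold steps, added 24 h post-plating; signal minus blank, relative to 0.2% DMSO control wells, was plotted against log molar concentration.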

MAT2A homodimer = molecular target: T1, MAT2A homodimer (Homo sapiens, UniProt P31153); assay: Biochemical assay: inhibition of MAT2A (phosphate release, PiColorLock Gold); settings: MAT2A IC50 score; read-out: Enzyme Inhibition (Example 275)
T1 construct: inferred from Ni sepharose purification and imidazole elution; made in house; host or cells: Sf9 insect cells, recombinant baculovirus (Bac to Bac, pFASTBAC1)
T1 sequence (P31153 whole entry): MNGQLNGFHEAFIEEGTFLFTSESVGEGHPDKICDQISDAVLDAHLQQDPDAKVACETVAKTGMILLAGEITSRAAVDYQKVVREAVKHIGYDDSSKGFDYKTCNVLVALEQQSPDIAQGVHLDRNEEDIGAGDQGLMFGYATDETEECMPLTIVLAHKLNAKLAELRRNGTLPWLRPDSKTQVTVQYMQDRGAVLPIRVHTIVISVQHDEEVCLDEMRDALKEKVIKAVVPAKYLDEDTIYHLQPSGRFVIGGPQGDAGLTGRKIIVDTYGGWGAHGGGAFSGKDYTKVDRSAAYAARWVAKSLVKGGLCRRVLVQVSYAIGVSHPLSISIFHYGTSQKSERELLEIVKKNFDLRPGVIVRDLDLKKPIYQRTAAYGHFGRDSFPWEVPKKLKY
In short: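 Phosphate formed alongside SAM was read with PiColorLock Gold and quantified against a potassium phosphate standard curve. Reactions ran 60 min at 25 °C after adding a substrate mix of 500 μM ATP and 400 μM L-methionine (mix concentrations). Compound had first been preincubated 60 min with recombinant Sf9-derived MAT2A homodimer ([…]) in pH 8.0 Tris buffer containing MgCl2, KCl, EDTA and BSA.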

HCT116 MTAP−/− = assay: Inhibition of cellular proliferation (Cell Titer Glo), HCT116 MTAP−/−; type: cell-based, human; settings: Homo sapiens, HCT-116, 96 h, 4 days, IC50 score, read-out: 4 Day Relative Growth Inhibition (MTAP −/−; Example 277)
In short: as §1

[1] = test system: SAM in HCT116 human colon carcinoma cell line engineered to delete the MTAP gene (MTAP −/−); assay: Cellular assay of target engagement (SAM) by LC-MS/MS; type: cell-based; settings: Homo sapiens, HCT-116, 72 h, IC50 score, read-out: Cell 72 h SAM Inhibition (MTAP −/−; Example 276)
In short: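 Intracellular SAM, the MAT2A product, was measured by quantitative LC-MS/MS against a d3-SAM standard in methanol/acetic acid extracts. Extracts came from HCT116 MTAP −/− cells exposed for 72 h at 37 °C to a ten-point, threefold dilution series of compound, added one day after seeding.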

SMILES | IC50 (HCT116 MTAP+/+) [nM] | IC50 (MAT2A homodimer) [nM] | IC50 (HCT116 MTAP−/−) [nM] | IC50 [1] [nM]
CCOc1ccc2cn(-c3ccc4ncn(C)c4c3)c(=O)c(-c3ccc(C)nc3)c2n1 [Example 132-A] | 100 to 10000 | < 100 | < 100 | < 100
CCOc1cnc2cn(-c3ccc4nn(C)cc4c3)c(=O)c(-c3ccc(OC(F)(F)F)nc3)c2n1 [Example 148-A] | 100 to 10000 | < 100 | 100 to 10000 | < 100
CCOc1cc(C)c2cn(-c3ccc4nn(C)cc4c3)c(=O)c(-c3ccc(Cl)cc3)c2n1 [Example 122-A] | 100 to 10000 | < 100 | < 100 | < 100
Cn1cnc2ccc(-n3cc4cnc(NCC(F)(F)F)nc4c(-c4ccc(Cl)cc4)c3=O)cc21 [Example 135, 8-(4-chlorophenyl)-6-(1-methyl-1H-benzo[d]imidazol-6-yl)-2-(2,2,2-trifluoroethylamino)pyrido[4,3-d]pyrimidin-7(6H)-one] | 100 to 10000 | < 100 | < 100 | < 100
Cc1ccc(-c2c(=O)n(-c3ccc4nn(C)cc4c3)cc3ccc(OCC(F)(F)F)nc23)cn1 [Example 130-A] | 100 to 10000 | < 100 | < 100 | < 100
[2H]C([2H])([2H])Oc1ccc(-c2c(=O)n(-c3ccc4nn(C)cc4c3)cc3ccc(OCC)nc23)cc1 [Example 117-A] | 100 to 10000 | < 100 | < 100 | < 100
CCOc1ccc2cn(-c3ccc4nn(C)cc4c3)c(=O)c(-c3cnc(C(F)(F)F)nc3)c2n1 [Example 119-A] | 100 to 10000 | < 100 | < 100 | < 100
Cn1cnc2ccc(-n3cc4ccc(OCC(F)(F)F)nc4c(-c4ccc(C5CC5)nc4)c3=O)cc21 [Example 120-A] | 100 to 10000 | < 100 | < 100 | < 100
O=c1c(-c2ccc(Cl)cc2)c2nc(NCC(F)(F)F)ncc2cn1-c1ccc2ncn(C3CC3)c2c1 [Example 127, 8-(4-chlorophenyl)-6-(1-cyclopropyl-1H-benzo[d]imidazol-6-yl)-2-(2,2,2-trifluoroethylamino)pyrido[4,3-d]pyrimidin-7(6H)-one] | > 10000 | < 100 | < 100 | < 100
Cn1cc(-n2cc3cnc(NCC(F)(F)F)nc3c(-c3ccc(OC(F)F)cc3)c2=O)ccc1=O [Example 155, 8-(4-(difluoromethoxy)phenyl)-6-(1-methyl-6-oxo-1,6-dihydropyridin-3-yl)-2-((2,2,2-trifluoroethyl)amino)pyrido[4,3-d]pyrimidin-7(6H)-one] | 100 to 10000 | < 100 | 100 to 10000 | 100 to 1000
[2H]C([2H])([2H])Oc1ccc(-c2c(=O)n(-c3ccc4nn(C)cc4c3)cc3ccc(OCC(F)(F)F)nc23)cc1 [Example 116-A] | > 10000 | < 100 | < 100 | < 100

The remaining lines, values ahead:

IC50 (HCT116 MTAP+/+) [nM] | IC50 (MAT2A homodimer) [nM] | IC50 (HCT116 MTAP−/−) [nM] | IC50 [1] [nM] | SMILES
100 to 10000 | < 100 | < 100 | < 100 | Cn1cc2cc(-n3cc4ccc(NCC(F)(F)F)nc4c(-c4ccc(OC(F)F)cc4)c3=O)ccc2n1 [Example 239, 8-(4-(difluoromethoxy)phenyl)-6-(2-methyl-2H-indazol-5-yl)-2-(2,2,2-trifluoroethylamino)-1,6-naphthyridin-7(6H)-one]
100 to 10000 | < 100 | < 100 | < 100 | CCOc1ccc2cn(-c3ccc4nn(C)cc4c3)c(=O)c(-c3ccc(C(F)F)nc3)c2n1 [Example 216, 8-(6-(difluoromethyl)pyridin-3-yl)-2-ethoxy-6-(2-methyl-2H-indazol-5-yl)-1,6-naphthyridin-7(6H)-one]
> 10000 | < 100 | 100 to 10000 | < 100 | Cn1cc2cc(-n3cc4cnc(OCC(F)(F)F)nc4c(-c4ccc(Cl)cc4)c3=O)ccc2n1 [Example 262, 8-(4-chlorophenyl)-6-(2-methyl-2H-indazol-5-yl)-2-(2,2,2-trifluoroethoxy)pyrido[4,3-d]pyrimidin-7(6H)-one]
100 to 10000 | < 100 | < 100 | < 100 | CCOc1ccc2cn(-c3ccc4ncn(C)c4c3)c(=O)c(-c3ccc(OC(F)F)cc3)c2n1 [Example 253, 8-(4-(difluoromethoxy)phenyl)-2-ethoxy-6-(1-methyl-1H-benzo[d]imidazol-6-yl)-1,6-naphthyridin-7(6H)-one]
> 10000 | < 100 | < 100 | < 100 | Cn1cc2cc(-n3cc4cnc(OCC(F)(F)F)nc4c(-c4ccc(OC(F)F)cc4)c3=O)ccc2n1 [Example 265, 8-(4-(difluoromethoxy)phenyl)-6-(2-methyl-2H-indazol-5-yl)-2-(2,2,2-trifluoroethoxy)pyrido[4,3-d]pyrimidin-7(6H)-one]
> 10000 | < 100 | 100 to 10000 | < 100 | CCNc1ncc2cn(-c3ccc(OC)cc3)c(=O)c(-c3ccc(Br)cc3)c2n1 [Example 188, 8-(4-bromophenyl)-2-(ethylamino)-6-(4-methoxyphenyl)pyrido[4,3-d]pyrimidin-7(6H)-one]
> 10000 | < 100 | 100 to 10000 | < 100 | O=c1c(-c2ccc(OC(F)F)cc2)c2nc(NCC(F)(F)F)ncc2cn1-c1ccc2nccn2c1 [Example 157, 8-(4-(difluoromethoxy)phenyl)-6-(imidazo[1,2-a]pyridin-6-yl)-2-((2,2,2-trifluoroethyl)amino)pyrido[4,3-d]pyrimidin-7(6)-one]
> 10000 | < 100 | 100 to 10000 | 100 to 1000 | O=c1c(-c2ccc(OC(F)F)cc2)c2nc(NC3CC3)ncc2cn1-c1ccc2ncccc2c1 [Example 179, 2-(cyclopropylamino)-8-(4-(difluoromethoxy)phenyl)-6-(quinolin-6-yl)pyrido[4,3-d]pyrimidin-7(6)-one]
100 to 10000 | < 100 | 100 to 10000 | < 100 | Cn1cc2cc(-n3cc4ccc(OCC(F)(F)F)nc4c(-c4ccc(OC(F)F)cc4)c3=O)ccc2n1 [Example 256, 8-(4-(difluoromethoxy)phenyl)-6-(2-methyl-2H-indazol-5-yl)-2-(2,2,2-trifluoroethoxy)-1,6-naphthyridin-7(6H)-one]
> 10000 | < 100 | 100 to 10000 | < 100 | CCOc1ncc2cn(-c3ccc4nn(C)cc4c3)c(=O)c(-c3ccc(OC(F)F)cc3)c2n1 [Example 272, 8-(4-(difluoromethoxy)phenyl)-2-ethoxy-6-(2-methyl-2H-indazol-5-yl)pyrido[4,3-d]pyrimidin-7(6H)-one]
> 10000 | < 100 | 100 to 10000 | 100 to 1000 | COc1ccc(-n2cc3cnc(NCC(F)(F)F)nc3c(-c3ccc(Cl)cc3)c2=O)cc1 [Example 193, 8-(4-chlorophenyl)-6-(4-methoxyphenyl)-2-((2,2,2-trifluoroethyl)amino)pyrido[4,3-d]pyrimidin-7(6H)-one]
100 to 10000 | < 100 | 100 to 10000 | < 100 | CCOc1ccc2cn(-c3ccc4nnn(C)c4c3)c(=O)c(-c3ccc(OC(F)F)cc3)c2n1 [Example 252, 8-(4-(difluoromethoxy)phenyl)-2-ethoxy-6-(1-methyl-1H-benzo[d][1,2,3]triazol-6-yl)-1,6-naphthyridin-7(6H)-one]
> 10000 | < 100 | < 100 | < 100 | Cn1cc2cc(-n3cc4ccc(OCC5CC5)nc4c(-c4ccc(Cl)cc4)c3=O)ccc2n1 [Example 233, 8-(4-chlorophenyl)-2-(cyclopropylmethoxy)-6-(2-methyl-2H-indazol-5-yl)-1,6-naphthyridin-7(6H)-one]
100 to 10000 | < 100 | 100 to 10000 | < 100 | COc1ccc(-n2cc3ccc(OCC(F)(F)F)nc3c(-c3ccc(OC(F)F)cc3)c2=O)cc1 [Example 258, 8-(4-(difluoromethoxy)phenyl)-6-(4-methoxyphenyl)-2-(2,2,2-trifluoroethoxy)-1,6-naphthyridin-7(6H)-one]
100 to 10000 | < 100 | < 100 | < 100 | CCOc1ccc2cn(-c3ccc4ncn(C)c4c3)c(=O)c(-c3ccc(C4CC4)nc3)c2n1 [Example 228, 8-(6-cyclopropylpyridin-3-yl)-2-ethoxy-6-(1-methyl-1H-benzo[d]imidazol-6-yl)-1,6-naphthyridin-7(6H)-one]
